Test results as given in article PMC10466331, “Fluorescence polarisation activity-based protein profiling for the identification of deoxynojirimycin-type inhibitors selective for lysosomal retaining alpha- and beta-glucosidases” (Chemical Science, 2023).
Like-named read-outs stand apart in the source and are kept apart here.

Key:
Assay type in all cases: biochemical
[1] = target: T1, recombinant human GAA (rhGAA, Myozyme) (Homo sapiens, UniProt P10253); test: competitive FluoPol-ABPP assay on rhGAA with TAMRA-ABP II; conditions: for GAA FP% (residual FP-signal): library screen, 5 μM inhibitor, 25 nM ABP II;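 as to all read-outs here: fluorescence polarization read at 540 nm excitation and 590 nm emission, background-corrected, normalized to uninhibited probe labelling as 100% and excess cyclosulfate as 0%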
T1 construct: purchased Genzyme

[2] = target: T2, human recombinant lysosomal α-glucosidase GAA (Myozyme) (Homo sapiens, UniProt P10253); test: fluorogenic substrate (4MU-α-D-glucopyranoside) assay on rhGAA; conditions: Table S2, 4-MU alpha glucoside substrate, read-out: IC50 on rhGAA
T2 construct: purchased Genzyme

[3] = target: T3, ER α-glucosidase GANAB (from Pompe disease Fibroblast lysates) (Homo sapiens, UniProt Q14697); test: fluorogenic substrate (4MU-α-D-glucopyranoside) assay on GANAB in Pompe fibroblast homogenates;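 also: inhibitor preincubated 30 min at 37 °C with homogenate, then GANAB activity read after 2 h with 3.0 mM fluorogenic substrate in McIlvaine buffer containing 0.1% BSA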
T3 construct: Cellular homogenates of Pompe fibroblasts (1 mg mL^−1) were used as protein source for GANAB; endogenous in cells; host or cells: Pompe disease fibroblasts (homogenate)
T3 sequence (Q14697 29-944): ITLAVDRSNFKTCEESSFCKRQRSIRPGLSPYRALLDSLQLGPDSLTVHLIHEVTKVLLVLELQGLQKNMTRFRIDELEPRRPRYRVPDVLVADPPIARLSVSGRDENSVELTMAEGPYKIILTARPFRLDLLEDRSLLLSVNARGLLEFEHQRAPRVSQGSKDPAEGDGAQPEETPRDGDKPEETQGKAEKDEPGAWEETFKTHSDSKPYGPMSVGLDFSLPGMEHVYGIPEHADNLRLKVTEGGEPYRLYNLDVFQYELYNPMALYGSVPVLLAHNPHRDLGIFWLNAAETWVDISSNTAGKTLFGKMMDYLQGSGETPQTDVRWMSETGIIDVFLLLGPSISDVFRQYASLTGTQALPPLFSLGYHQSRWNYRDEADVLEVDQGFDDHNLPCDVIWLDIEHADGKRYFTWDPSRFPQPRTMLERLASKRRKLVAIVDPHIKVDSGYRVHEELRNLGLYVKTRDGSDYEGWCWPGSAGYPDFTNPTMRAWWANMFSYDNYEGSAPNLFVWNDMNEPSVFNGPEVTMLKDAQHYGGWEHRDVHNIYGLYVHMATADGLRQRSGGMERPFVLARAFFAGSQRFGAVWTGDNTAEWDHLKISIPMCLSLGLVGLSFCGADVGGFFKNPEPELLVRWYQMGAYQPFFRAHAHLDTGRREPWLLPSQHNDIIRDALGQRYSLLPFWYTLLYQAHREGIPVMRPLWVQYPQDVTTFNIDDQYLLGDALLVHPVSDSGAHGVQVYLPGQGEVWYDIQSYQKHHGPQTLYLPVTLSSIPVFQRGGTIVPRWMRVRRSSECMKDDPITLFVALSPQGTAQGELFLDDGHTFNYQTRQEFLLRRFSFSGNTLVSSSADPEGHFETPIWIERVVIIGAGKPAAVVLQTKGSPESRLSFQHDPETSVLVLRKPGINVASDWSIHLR
T3 sequence (P14314 15-528 partner): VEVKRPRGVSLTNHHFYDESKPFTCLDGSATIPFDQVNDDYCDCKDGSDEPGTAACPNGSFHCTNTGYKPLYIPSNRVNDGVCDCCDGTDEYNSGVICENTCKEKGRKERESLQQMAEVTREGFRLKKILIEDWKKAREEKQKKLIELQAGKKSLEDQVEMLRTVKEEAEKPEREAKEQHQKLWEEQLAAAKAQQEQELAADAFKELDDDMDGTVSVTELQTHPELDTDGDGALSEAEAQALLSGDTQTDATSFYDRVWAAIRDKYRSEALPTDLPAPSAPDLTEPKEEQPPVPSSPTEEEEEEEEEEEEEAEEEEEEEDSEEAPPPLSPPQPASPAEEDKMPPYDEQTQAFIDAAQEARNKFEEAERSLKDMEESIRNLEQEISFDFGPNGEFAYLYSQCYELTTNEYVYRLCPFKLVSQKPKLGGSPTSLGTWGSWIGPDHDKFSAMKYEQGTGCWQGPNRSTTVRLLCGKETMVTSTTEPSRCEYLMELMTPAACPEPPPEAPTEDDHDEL

[4] = Table S2, 4-MU alpha glucoside substrate, read-out: IC50 on GANAB

Row | SMILES | GAA FP% (residual FP-signal) [1] [%] | IC50 [2] [nM] | IC50 [3, 4] [nM] | other results
1 | OC[C@@H]1[C@@H](O)[C@H](O)[C@@H](O)CN1CCCCCOCc1ccc(-c2ccc3c(c2)OCO3)cc1 [#ID 303] | 0.1 | 140 | 4700 | 
2 | CC(C)=CCOCCCCCN1C[C@H](O)[C@@H](O)[C@H](O)[C@H]1CO [#ID 100] | 19 | 600 | 9900 | 
3 | OC[C@@H]1[C@@H](O)[C@H](O)[C@@H](O)CN1CCCCOCCC12CC3CC(CC(C3)C1)C2 [#ID 203] | 9.2 | 42 | 2100 | 
4 | CCCCCCCCN1C[C@H](O)[C@@H](O)[C@H](O)[C@H]1CO [#ID 286] |  |  |  | GAA FP% (residual FP-signal) ([1]; listed as 286): 9.1%; IC50 ([2]; listed as 286): 760 nM; IC50 ([3]; Table S2, 4-MU alpha glucoside substrate, listed as 286, read-out: IC50 on GANAB): 8500 nM
5 | OC[C@@H]1[C@@H](O)[C@H](O)[C@@H](O)CN1CCCCCOCc1ccccc1 [#ID 139] | 20 | 760 | 9320 | 
6 | CCCCCCN1C[C@H](O)[C@@H](O)[C@H](O)[C@H]1CO [#ID 293] |  |  |  | GAA FP% (residual FP-signal) ([1]; listed as 293): 17%; IC50 ([2]; listed as 293): 1300 nM; IC50 ([3]; Table S2, 4-MU alpha glucoside substrate, listed as 293, read-out: IC50 on GANAB): 14000 nM
7 | CCCCCCCN1C[C@H](O)[C@@H](O)[C@H](O)[C@H]1CO [#ID 31] | 35 | 910 | 60000 | 
8 | COc1cccc(-c2ccc(COCCCCCN3C[C@H](O)[C@@H](O)[C@H](O)[C@H]3CO)cc2)c1 [#ID 306] | 0.8 | 15 | 390 | 
9 | Cc1cccc(-c2ccc(COCCCCCN3C[C@H](O)[C@@H](O)[C@H](O)[C@H]3CO)cc2)c1 [#ID 302] | 0.1 | 20 | 1600 | 
10 | CC(C)CCCC(C)C1CCC2C3CC=C4CC(OCCCCCN5CC(O)C(O)C(O)C5CO)CCC4(C)C3CCC12C (centres unmarked) [#ID 22] | 6.5 | 170 | 6000 | 
11 | CC(C)(C)COCCOCCN1C[C@H](O)[C@@H](O)[C@H](O)[C@H]1CO [#ID 89] | 24 | 730 | 1700 | 
12 | O=C(CCCCCN1C[C@H](O)[C@@H](O)[C@H](O)[C@H]1CO)NC12CC3CC(CC(C3)C1)C2 [#ID 18] | 24 | 360 | 2400 | 
13 | OC[C@@H]1[C@@H](O)[C@H](O)[C@@H](O)CN1CCCCCOCc1ccc(-c2cccnc2)cc1 [#ID 318] | 0.6 | 85 | 1700 | 
14 | CCCCCCN1C[C@H](O)[C@@H](O)[C@H](O)[C@H]1CO [#ID 29] |  |  |  | GAA FP% (residual FP-signal) ([1]; listed as 29): 49%; IC50 ([2]; listed as 29): 1500 nM
15 | COc1ccc(-c2ccc(COCCCCCN3C[C@H](O)[C@@H](O)[C@H](O)[C@H]3CO)cc2)cc1 [#ID 305] | 0.3 | 20 | 380 | 
16 | CC(C)=CCC/C(C)=C/CC/C(C)=C/COCCCCCN1C[C@H](O)[C@@H](O)[C@H](O)[C@H]1CO [#ID 90] | 6.8 | 490 | 2500 | 
17 | Cc1ccc(-c2ccc(COCCCCCN3C[C@H](O)[C@@H](O)[C@H](O)[C@H]3CO)cc2)cc1 [#ID 301] | 0.5 | 37 | 1600 | 
18 | OC[C@@H]1[C@@H](O)[C@H](O)[C@@H](O)CN1CCCCCOCc1ccc(-c2ccc(F)cc2)cc1 [#ID 311] | 0.9 | 43 | 1400 | 

Row | SMILES | GAA FP% (residual FP-signal) [1] [%] | IC50 [2] [nM] | IC50 [3, 4] [nM] | other results
19 | C[C@@H](OCCCCCN1C[C@H](O)[C@@H](O)[C@H](O)[C@H]1CO)c1ccc(-c2ccccc2)cc1 [#ID 345] | 1.5 | 58 | 370 | 
20 | OC[C@@H]1[C@@H](O)[C@H](O)[C@@H](O)CN1CCCCCOCc1ccc(-c2ccccc2)c(F)c1 [#ID 37] | 3.6 | 37 | 1600 | 
21 | OC[C@@H]1[C@@H](O)[C@H](O)[C@@H](O)CN1CCCCCOCC12CC3CC(C1)CC(COCCCCCN1C[C@H](O)[C@@H](O)[C@H](O)[C@H]1CO)(C3)C2 [#ID 99] | 5.6 | 280 | 1300 | 
22 | OC[C@H]1NC[C@H](O)[C@@H](O)[C@H]1O [#ID 154] | 2.4 |  |  | 
23 | N#Cc1cccc(-c2ccc(COCCCCCN3C[C@H](O)[C@@H](O)[C@H](O)[C@H]3CO)cc2)c1 [#ID 310] | 2.5 | 54 | 1000 | 
24 | OC[C@@H]1[C@@H](O)[C@H](O)[C@@H](O)CN1CCCCCOCc1ccc(-c2cccc(F)c2)cc1 [#ID 312] | 0.9 | 24 | 1000 | 
25 | OC[C@@H]1[C@H](O)[C@@H](O)[C@H](O)CN1CCCCCOCc1ccc(-c2ccccc2)cc1 [#ID 122] | 35 | 1300 |  | 
26 | OC[C@@H]1[C@@H](O)[C@H](O)[C@@H](O)CN1CCCCCOCc1ccc(-c2ccccc2)cc1C(F)(F)F [#ID 118] | 2.9 | 18 | 480 | 
27 | CC(C)(C)COCCCCCN1C[C@H](O)[C@@H](O)[C@H](O)[C@@H]1CO [#ID 26] | 23 | 640 | 29000 | 
28 | OC[C@@H]1[C@@H](O)[C@H](O)[C@@H](O)CN1CCCCCOCc1ccc(-c2ccc(F)nc2)cc1 [#ID 322] | 0.8 | 80 | 1700 | 
29 | OC[C@@H]1[C@@H](O)[C@H](O)[C@@H](O)CN1CCCCCOCc1ccc(-c2ccccc2F)cc1 [#ID 330] | 0.8 | 98 | 1600 | 
30 | OC[C@H]1N[C@H](C/C=C/CCOCC23CC4CC(CC(C4)C2)C3)[C@H](O)[C@@H](O)[C@@H]1O [#ID 159] | 23 | 450 |  | 
31 | OC[C@@H]1[C@@H](O)[C@H](O)[C@@H](O)CN1CCCCCOCC12CC3CC(CC(C3)C1)C2 [Compound 13] | 8.9 |  | 5400 | IC50 ([3]; 4MU-α-glucoside substrate, pH 7.0, mean ± SD, 3 technical replicates, read-out: IC50 GANAB): 5360 ± 570 nM
32 | CCCCOCCOCCN1C[C@H](O)[C@@H](O)[C@H](O)[C@H]1CO [#ID 200] | 46 | 3900 |  | 
33 | CCCCCN1C[C@H](O)[C@@H](O)[C@H](O)[C@H]1CO [#ID 297] | 12 | 1700 |  | 
34 | O=S1(=O)O[C@@H]2[C@H](O)[C@@H](O)[C@H](O)[C@@H](CO)[C@@H]2O1 [Compound 12, 1,6-epi-cyclophellitol cyclosulfate, reference compound] |  |  |  | IC50 ([1]; competitive FluoPol-ABPP, rhGAA 80 nM, ABP II 80 nM, pH 5.0, read-out: apparent IC50 (GAA)): 33 nM
35 | OC[C@@H]1[C@H](O)[C@H](O)[C@@H](O)CN1CCCCCOCC12CC3CC(CC(C3)C1)C2 [#ID 150] | 15 |  | 12000 | 
